For one assay, the target named is AHD-PH + RhoA* (Homo sapiens, UniProt Q9NQW6). Description: SPR, L1 chip, liposomes. In kind it is binding. To be noted: PI(4,5)P2 vesicles; with lipid-modified RhoA; room temperature. For orientation: In SPR one partner is held on a chip, and binding of the other changes the refractive index at the surface.
The target in assay [1] is T1, AHD (anillin-homology domain of anillin, 712-981) (Homo sapiens, UniProt Q9NQW6).
T1 sequence (Q9NQW6 712-981): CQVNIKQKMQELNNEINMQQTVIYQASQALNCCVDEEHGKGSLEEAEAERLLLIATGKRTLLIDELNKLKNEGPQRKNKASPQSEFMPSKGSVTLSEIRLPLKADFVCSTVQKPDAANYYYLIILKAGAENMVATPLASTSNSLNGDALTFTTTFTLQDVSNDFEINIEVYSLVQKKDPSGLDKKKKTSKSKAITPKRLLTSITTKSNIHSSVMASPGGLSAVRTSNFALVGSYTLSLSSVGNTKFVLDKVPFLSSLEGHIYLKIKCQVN
Description: SPR, L1 chip, liposomes. The format is binding. The conditions noted are these: PI(4,5)P2 vesicles; room temperature.

Assay [2] deals with T2, Mid1 (C-terminal domain, 579-920) (Schizosaccharomyces pombe, UniProt P78953).
T2 sequence (P78953 579-920): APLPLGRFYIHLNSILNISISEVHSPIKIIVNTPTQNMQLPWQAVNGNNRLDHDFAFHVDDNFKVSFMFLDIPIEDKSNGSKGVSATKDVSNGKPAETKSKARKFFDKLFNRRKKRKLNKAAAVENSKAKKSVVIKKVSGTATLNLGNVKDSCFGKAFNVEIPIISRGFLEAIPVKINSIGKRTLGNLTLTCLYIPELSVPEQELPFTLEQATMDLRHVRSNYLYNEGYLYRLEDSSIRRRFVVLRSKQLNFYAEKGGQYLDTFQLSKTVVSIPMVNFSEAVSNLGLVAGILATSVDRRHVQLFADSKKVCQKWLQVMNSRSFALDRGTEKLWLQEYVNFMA
Nature of the assay: SPR, L1 chip, liposomes. The format is binding. To be noted: PI(4,5)P2 vesicles; dimeric Mid1; given as 'up to'; room temperature.

For the next assay, the target named is RhoA(181)-Q63L (UniProt P61586 1-181, Q63L). Description: ITC.
Chain of RhoA(181)-Q63L (P61586 1-181 Q63L): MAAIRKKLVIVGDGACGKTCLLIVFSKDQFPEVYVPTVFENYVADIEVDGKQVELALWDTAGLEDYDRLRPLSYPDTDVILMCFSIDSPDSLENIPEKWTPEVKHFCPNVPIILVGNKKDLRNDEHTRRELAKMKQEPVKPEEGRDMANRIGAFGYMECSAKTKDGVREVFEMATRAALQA

Chain of AHD-PH + RhoA* (Q9NQW6 712-1124): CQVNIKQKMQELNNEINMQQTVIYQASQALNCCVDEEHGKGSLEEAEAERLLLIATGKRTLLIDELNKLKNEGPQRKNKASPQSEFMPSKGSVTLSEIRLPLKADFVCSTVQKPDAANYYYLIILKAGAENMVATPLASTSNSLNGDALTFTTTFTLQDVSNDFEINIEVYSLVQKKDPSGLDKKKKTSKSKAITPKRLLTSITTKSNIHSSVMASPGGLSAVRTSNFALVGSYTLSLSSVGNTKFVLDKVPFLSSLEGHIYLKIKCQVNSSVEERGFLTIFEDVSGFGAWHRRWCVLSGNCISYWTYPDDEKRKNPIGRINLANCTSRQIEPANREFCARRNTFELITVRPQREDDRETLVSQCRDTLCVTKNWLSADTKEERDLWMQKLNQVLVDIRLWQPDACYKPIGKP
Chain of AHD-PH + RhoA* (P61586 1-190 partner): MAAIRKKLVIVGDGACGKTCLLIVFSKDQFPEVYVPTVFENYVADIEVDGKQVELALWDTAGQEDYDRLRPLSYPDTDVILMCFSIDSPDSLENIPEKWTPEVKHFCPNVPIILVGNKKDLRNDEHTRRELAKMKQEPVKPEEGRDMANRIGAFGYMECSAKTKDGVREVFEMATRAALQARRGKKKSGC

For the molecule PI(4,5)P2, the Kd at AHD-PH + RhoA* was around 280 nM; in assay [1], around 14000 nM; in assay [2], 120 nM.

B1: anillin-homology domain (AHD) of human anillin (712–981) (domain or fragment, UniProt Q9NQW6 712-981, looked up)
chain: CQVNIKQKMQELNNEINMQQTVIYQASQALNCCVDEEHGKGSLEEAEAERLLLIATGKRTLLIDELNKLKNEGPQRKNKASPQSEFMPSKGSVTLSEIRLPLKADFVCSTVQKPDAANYYYLIILKAGAENMVATPLASTSNSLNGDALTFTTTFTLQDVSNDFEINIEVYSLVQKKDPSGLDKKKKTSKSKAITPKRLLTSITTKSNIHSSVMASPGGLSAVRTSNFALVGSYTLSLSSVGNTKFVLDKVPFLSSLEGHIYLKIKCQVN
Turning to B1, the dH in the assay with RhoA(181)-Q63L worked out at 3.97 kcal/mol.

Broadly, the Kd is the constant that tells how readily two partners part at equilibrium.

The record behind these values is publication PMC4449299 (Developmental cell, 2015).
